Reference: patent publication US7432260B2, “Pyrimidine compounds” (Cyclacel Limted, priority 2002, dated 2008)
Read-outs that look alike come from different tables or passages of the source. One block for each compound: values may come before it.

Key:
[1] = target: ERK2 (extracellular-signal-regulated kinase 2) (Homo sapiens, UniProt P28482); assay: Kinase assay ERK2; assay type: biochemical; settings: Table 3 selectivity panel; read-out: Kinase specificity IC50 ERK2
Experimental: Kinase assays. […] This was achieved by measurement of incorporation of radioactive phosphate from ATP into appropriate polypeptide substrates. Recombinant protein kinases and kinase complexes were produced or obtained commercially. Assays were performed using 96-well plates and appropriate assay buffers (typically 25 mM β-glycerophosphate, 20 mM MOPS, 5 mM EGTA, 1 mM DTT, 1 mM […], pH 7.4), into which were added 2-4 μg of active enzyme with appropriate substrates. The reactions were initiated by addition of Mg/ATP mix (15 mM MgCl2+100 μM ATP with 30-50 kBq per well of [γ-^32P]-ATP) and mixtures incubated as required at 30° C. Reactions were stopped on ice, followed by filtration through p81 filterplates or GF/C filterplates (Whatman Polyfiltronics, Kent, UK). After washing 3 times with 75 mM aq orthophosphoric acid, plates were dried, scintillant added and incorporated radioactivity measured in a scintillation counter (TopCount, Packard Instruments, Pangbourne, Berks, UK). Compounds for kinase assay were made-up as 10 mM stocks in DMSO and diluted into 10% DMSO inrassay buffer.

[2] = target: CDK2/cyclin A (Homo sapiens, UniProt P24941); assay: Kinase assay CDK2/cyclin A; assay type: biochemical
Outline: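 Radiometric kinase assays with recombinant enzymes (2-4 μg) and polypeptide substrates in β-glycerophosphate/MOPS/EGTA buffer, pH 7.4. Started with 15 mM MgCl2 + 100 μM ATP containing [γ-32P]-ATP, incubated at 30° C; incorporated 32P captured on filterplates and counted. Compounds diluted in 10% DMSO assay buffer.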

[3] = target: T1, ARK-2: aurora kinase-2 (aurora A kinase) (Homo sapiens, UniProt O14965); assay: Aurora-A (human) kinase assay; assay type: biochemical; settings: Table 2; 15 μM ATP; read-out: Kinase Inhibition IC50 ARK-2
T1 construct: purchased
T1 sequence (O14965 whole entry): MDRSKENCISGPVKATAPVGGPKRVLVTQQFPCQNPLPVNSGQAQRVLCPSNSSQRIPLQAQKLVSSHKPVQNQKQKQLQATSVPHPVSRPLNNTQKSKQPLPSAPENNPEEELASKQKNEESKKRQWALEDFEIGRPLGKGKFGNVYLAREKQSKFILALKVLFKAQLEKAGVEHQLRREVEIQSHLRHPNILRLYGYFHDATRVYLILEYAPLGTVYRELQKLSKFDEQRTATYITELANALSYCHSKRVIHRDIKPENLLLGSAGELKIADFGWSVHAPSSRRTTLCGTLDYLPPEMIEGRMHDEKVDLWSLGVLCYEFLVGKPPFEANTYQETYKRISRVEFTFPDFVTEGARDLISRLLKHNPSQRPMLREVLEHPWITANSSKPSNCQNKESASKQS
Experimental: Aurora-A (human) kinase assay. This was achieved by measurement of incorporation of radioactive phosphate from ATP into Kemptide substrate (LRRASLG), upon phosphorylation by commercially obtained aurora-A kinase. Assays were performed using 96-well plates and appropriate assay buffers (8 mM MOPS, 0.2 mM EDTA, pH 7.0), into which were added 5-10 ng of active enzyme with 200 μM substrate (Kemptide). […] Reactions were stopped by addition of 3% phosphoric acid, followed by filtration through p81 filterplates (Whatman Polyfiltronics, Kent, UK). After washing 5 times with 75 mM aq orthophosphoric acid and once in methanol, plates were dried, scintillant added and incorporated radioactivity measured in a scintillation counter (TopCount, Packard Instruments, Pangbourne, Berks, UK). Compounds for kinase assay were made up as 10 mM stocks in DMSO and diluted into 10% DMSO in assay buffer.

[4] = tested on: Lovo; assay: 72-h MTT cytotoxicity assay Lovo; assay type: cell-based; settings: Homo sapiens, Table 5, Colon
Experimental: (§1) MTT cytotoxicity assay. […] Standard 72-h MTT (thiazolyl blue; 3-[4,5-dimethylthiazol-2-yl]-2,5-diphenyltetrazolium bromide) assays were performed (Haselsberger, K.; Peterson, D. C.; Thomas, D. G.; Darling, J. L. Anti Cancer Drugs 1996, 7, 331-8; Loveland, B. E.; Johns, T. G.; Mackay, I. R.; Vaillant, F.; Wang, Z. X.; Hertzog, P. J. Biochemistry International 1992, 27, 501-10). In short: cells were seeded into 96-well plates according to doubling time and incubated overnight at 37° C. Test compounds were made up in DMSO and a 1/3 dilution series prepared in 100 μL cell media, added to cells (in triplicates) and incubated for 72 ho at 37° C. MTT was made up as a stock of 5 mg/mL in cell media and filter-sterilised. Media was removed from cells followed by a wash with 200 μL PBS.
(§2) MTT solution was then added at 20 μL per well and incubated in the dark at 37° C. for 4 h. MTT solution was removed and cells again washed with 200 μL PBS. MTT dye was solubilised with 200 μL per well of DMSO with agitation.

[5] = tested on: K562; assay: 72-h MTT cytotoxicity assay K562; assay type: cell-based; settings: Homo sapiens, K562, 72 h; Table 5; Chronic myelogenous leukaemia
Experimental: as §1, §2

[6] = tested on: SJSA-1; assay: 72-h MTT cytotoxicity assay SJSA-1; assay type: cell-based; settings: Homo sapiens, SJSA-1, 72 h; Table 5; Osteogenic sarcoma
Experimental: as §1, §2

[7] = Table 2, read-out: Kinase Inhibition IC50 CDK2 cyclin A
[8] = Table 3 selectivity panel, read-out: Kinase specificity IC50 CDK2/A

Chain of ERK2 (extracellular-signal-regulated kinase 2) (P28482 whole entry, species assumed): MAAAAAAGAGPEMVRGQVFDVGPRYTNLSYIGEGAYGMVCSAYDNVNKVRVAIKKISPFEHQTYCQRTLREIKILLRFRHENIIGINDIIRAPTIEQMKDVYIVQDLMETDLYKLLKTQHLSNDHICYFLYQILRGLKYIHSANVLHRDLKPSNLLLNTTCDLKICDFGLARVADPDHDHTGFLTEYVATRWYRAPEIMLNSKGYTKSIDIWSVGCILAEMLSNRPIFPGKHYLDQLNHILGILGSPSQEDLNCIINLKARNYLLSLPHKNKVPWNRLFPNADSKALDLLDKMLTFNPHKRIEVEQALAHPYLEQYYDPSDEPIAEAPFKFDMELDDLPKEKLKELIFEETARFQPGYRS

Compound: CNc1nc(C)c(-c2ccnc(Nc3ccc(N4CCOCC4)cc3)n2)s1 [Compound 3, [4-(2-N-Methylamino-4-methyl-thiazol-5-yl)-pyrimidin-2-yl]-(4-morpholinophenyl)-amine]
IC50 [1]: > 100 µM

Compound: CC[C@@H](N)C(=O)Nc1nc(C)c(-c2ccnc(Nc3cccc([N+](=O)[O-])c3)n2)s1 [Compound 16, (2R)-2-Amino-N-{4-methyl-5-[2-(3-nitro-phenylamino)-pyrimidin-4-yl]-thiazol-2-yl}-butyramide]
IC50 [2, 7]: 0.65 µM | IC50 [2, 8]: 0.65 µM | IC50 [3]: 2.8 µM | IC50 [1]: > 100 µM | IC50 [4]: 0.3 µM | IC50 [5]: 2.5 µM | IC50 [6]: 1 µM

IC50 [2, 7]: 5.3 µM
Compound: Cc1nc(C)c(-c2ccnc(Nc3ccc(NC(=O)CN4CCCC4)cc3)n2)s1 [Compound 53, N-{4-[4-(2,4-Dimethyl-thiazol-5-yl)-pyrimidin-2-ylamino]-phenyl}-2-pyrrolidin-1-yl-acetamide]

Compound: Cc1nc(N)sc1-c1ccnc(Nc2ccc(N3CCOCC3)cc2)n1 [Compound 1, [4-(2-Amino-4-methyl-thiazol-5-yl)-pyrimidin-2-yl]-(4-morpholin-4-yl-phenyl)-amine]
IC50 [4]: 0.9 µM | IC50 [5]: 3.8 µM | IC50 [6]: > 5 µM

Compound: Cc1nc(NC(=O)[C@H](N)[C@@H](C)O)sc1-c1ccnc(Nc2cccc([N+](=O)[O-])c2)n1 [Compound 15, (2R,3R)-2-Amino-3-hydroxy-N-{4-methyl-5-[2-(3-nitro-phenylamino)-pyrimidin-4-yl]-thiazol-2-yl}-butyramide]
IC50 [2, 7]: 0.85 µM | IC50 [2, 8]: 0.4 µM | IC50 [1]: > 100 µM | IC50 [4]: 0.7 µM | IC50 [5]: 4.6 µM | IC50 [6]: 1.9 µM

Compound: CNc1nc(C)c(-c2ccnc(Nc3ccc(N4CCN(Cc5ccccc5)CC4)cc3)n2)s1 [Compound 11, [4-(4-Benzyl-piperazin-1-yl)-phenyl]-[4-(4-methyl-2-methylamino-thiazol-5-yl)-pyrimidin-2-yl]-amine]
IC50 [2, 7]: 2.2 µM | IC50 [2, 8]: 2.2 µM | IC50 [1]: > 100 µM | IC50 [4]: 2 µM | IC50 [5]: 2.1 µM | IC50 [6]: 4.3 µM
